In the data set the test system is CCRIS mutagenicity, Ames/micronucleus/aberration tests. The data set is described as follows: CCRIS mutagenicity studies.
[1] abbreviates: Test System: AMES SALMONELLA TYPHIMURIUM, Strain/Indicator: TA98, Metabolic Activation: NONE, Method: STANDARD PLATE.
The mark [2] stands for this setting: Test System: AMES SALMONELLA TYPHIMURIUM, Strain/Indicator: TA100, Metabolic Activation: NONE, Method: STANDARD PLATE.
The mark [3] stands for this setting: Test System: AMES SALMONELLA TYPHIMURIUM, Strain/Indicator: TA100, Metabolic Activation: RAT, LIVER, S-9, AROCLOR 1254, Method: STANDARD PLATE.
[4] abbreviates: Test System: AMES SALMONELLA TYPHIMURIUM, Strain/Indicator: TA1538, Metabolic Activation: NONE, Method: STANDARD PLATE.
The mark [5] stands for this setting: Test System: MOUSE LYMPHOMA, Strain/Indicator: L5178Y (TK+/TK-), Metabolic Activation: NONE, Method: SUSPENSION/PLATE.
Where [6] appears, read: Test System: MOUSE LYMPHOMA, Strain/Indicator: L5178Y (TK+/TK-), Metabolic Activation: RAT, LIVER, S-9, AROCLOR 1254, Method: SUSPENSION/PLATE.

The source made the active and inactive calls. The rule behind the calls is not given here.

Here are results for 5 compounds from PubChem BioAssay AID1259407 (Chemical Carcinogenesis Research Information System (CCRIS), 2018).

On to `c1ccc2cc3c(ccc4ccccc43)cc2c1`, for which the mutagenic call by setting is: under setting [1], “inactive; negative”; (Test System: AMES SALMONELLA TYPHIMURIUM, Strain/Indicator: TA98, Method: STANDARD PLATE) “active; positive”; under setting [2], “inactive; negative”; (Test System: AMES SALMONELLA TYPHIMURIUM, Strain/Indicator: TA100, Metabolic Activation: RAT, INTACT HEPATOCYTES, AROCLOR 1254, Method: PREINCUBATION) “active; positive”; (Test System: AMES SALMONELLA TYPHIMURIUM, Strain/Indicator: TA100, Metabolic Activation: RAT, LIVER, S-9, 3-METHYLCHOLANTHRENE, Method: STANDARD PLATE) “active; positive”; under setting [3], “active; positive”. Moreover, the mutagenic call (Test System: AMES SALMONELLA TYPHIMURIUM, Strain/Indicator: TA100, Metabolic Activation: RAT, LIVER, S-9, PHENOBARBITAL, Method: STANDARD PLATE) was “inactive; negative”; the mutagenic call (Test System: AMES SALMONELLA TYPHIMURIUM, Strain/Indicator: TA100, Metabolic Activation: RAT, NADPH-FORTIFIED HOMOGENIZED HEPATOCYTES, AROCLOR 1254, Method: PREINCUBATION) was “active; positive”; the mutagenic call (Test System: AMES SALMONELLA TYPHIMURIUM, Strain/Indicator: TA100, Metabolic Activation: RAT, SONICATED HEPATOCYTES, AROCLOR 1254, Method: PREINCUBATION) is “active; positive”; the mutagenic call (Test System: AMES SALMONELLA TYPHIMURIUM, Strain/Indicator: TA100, Method: STANDARD PLATE) is “active; positive”; the mutagenic call (Test System: AMES SALMONELLA TYPHIMURIUM, Strain/Indicator: TA1537, Metabolic Activation: MOUSE, LIVER, S-9, Method: STANDARD PLATE) is “active; positive”; the mutagenic call under setting [4] was “inactive; negative”. The mutagenic call by setting is: (Test System: AMES SALMONELLA TYPHIMURIUM, Strain/Indicator: TA1538, Metabolic Activation: RAT, LIVER, S-9, AROCLOR 1254, Method: STANDARD PLATE) “inactive; negative”; (Test System: AMES SALMONELLA TYPHIMURIUM, Strain/Indicator: TA1538, Metabolic Activation: RAT, LIVER, S-9, PHENOBARBITAL, Method: STANDARD PLATE) “active; positive”; (Test System: CHINESE HAMSTER V-79, Strain/Indicator: V-79/6-THIOGUANINE, Metabolic Activation: RAT, LIVER, S-9, PHENOBARBITAL, Method: STANDARD PLATE) “active; positive”; (Test System: CHINESE HAMSTER V-79, Strain/Indicator: V-79/OUABAIN, Metabolic Activation: CELL-MEDIATED, Method: STANDARD PLATE) “active; positive”; (Test System: E. COLI, Strain/Indicator: WP2 UVRA, Metabolic Activation: HAMSTER, LIVER, S-9, AROCLOR 1254, Method: STANDARD PLATE) “inactive; negative”; (Test System: E. COLI, Strain/Indicator: WP2 UVRA, Metabolic Activation: HAMSTER, LIVER, S-9, Method: STANDARD PLATE) “inactive; negative”. For the same compound, the mutagenic call is, setting by setting: (Test System: E. COLI, Strain/Indicator: WP2 UVRA, Metabolic Activation: MOUSE, LIVER, S-9, AROCLOR 1254, Method: STANDARD PLATE) “inactive; negative”; (Test System: E. COLI, Strain/Indicator: WP2 UVRA, Metabolic Activation: MOUSE, LIVER, S-9, Method: STANDARD PLATE) “inactive; negative”; (Test System: E. COLI, Strain/Indicator: WP2 UVRA, Metabolic Activation: NONE, Method: STANDARD PLATE) “inactive; negative”; (Test System: E. COLI, Strain/Indicator: WP2 UVRA, Metabolic Activation: RAT, LIVER, S-9, AROCLOR 1254, Method: STANDARD PLATE) “inactive; negative”; (Test System: E. COLI, Strain/Indicator: WP2 UVRA, Metabolic Activation: RAT, LIVER, S-9, Method: STANDARD PLATE) “inactive; negative”; under setting [5], “active; positive”. Further, the mutagenic call is, setting by setting: under setting [6], “active; positive”; (Test System: MOUSE LYMPHOMA, Strain/Indicator: L5178Y (TK+/TK-), Metabolic Activation: RAT, LIVER, S-9, Method: SUSPENSION/PLATE) “active; positive”.
With `O=C(Cn1ccnc1[N+](=O)[O-])NCc1ccccc1`, the mutagenic call reads like this: under setting [2], “active; positive”; under setting [3], “active; positive”.
`Cc1nc2ccc(N(C)C)c(C)c2nc1C`: the mutagenic call is “inactive; negative” (Test System: AMES SALMONELLA TYPHIMURIUM, Strain/Indicator: TA98, Metabolic Activation: NONE, Method: PREINCUBATION); “active; positive” (Test System: AMES SALMONELLA TYPHIMURIUM, Strain/Indicator: TA98, Metabolic Activation: RAT, LIVER, S-9, PCB, Method: PREINCUBATION); “inactive; negative” (Test System: AMES SALMONELLA TYPHIMURIUM, Strain/Indicator: TA100, Metabolic Activation: NONE, Method: PREINCUBATION); “active; positive” (Test System: AMES SALMONELLA TYPHIMURIUM, Strain/Indicator: TA100, Metabolic Activation: RAT, LIVER, S-9, PCB, Method: PREINCUBATION).
Take `Nc1cccc2cc3c(nc12)CCCC3`: the mutagenic call by setting is: (Test System: AMES SALMONELLA TYPHIMURIUM, Strain/Indicator: TA97A, Metabolic Activation: NONE, Method: STANDARD PLATE) “active; positive”; (Test System: AMES SALMONELLA TYPHIMURIUM, Strain/Indicator: TA97A, Metabolic Activation: RAT, LIVER, S-9, AROCLOR 1254, Method: STANDARD PLATE) “active; positive”.
Consider `CCCCCCCCCCCC(=O)OOC(=O)CCCCCCCCCCC`, for which the mutagenic call runs as follows: (Test System: AMES SALMONELLA TYPHIMURIUM, Strain/Indicator: TA98, Metabolic Activation: HAMSTER, LIVER, S-9, AROCLOR 1254 (10%), Method: STANDARD PLATE) “inactive; negative”; under setting [1], “inactive; negative”; (Test System: AMES SALMONELLA TYPHIMURIUM, Strain/Indicator: TA98, Metabolic Activation: RAT, LIVER, S-9, AROCLOR 1254 (10%), Method: STANDARD PLATE) “inactive; negative”; (Test System: AMES SALMONELLA TYPHIMURIUM, Strain/Indicator: TA100, Metabolic Activation: HAMSTER, LIVER, S-9, AROCLOR 1254 (10%), Method: STANDARD PLATE) “inactive; negative”; under setting [2], “inactive; negative”; (Test System: AMES SALMONELLA TYPHIMURIUM, Strain/Indicator: TA100, Metabolic Activation: RAT, LIVER, S-9, AROCLOR 1254 (10%), Method: STANDARD PLATE) “inactive; negative”. Moreover, the mutagenic call was “inactive; negative” (Test System: AMES SALMONELLA TYPHIMURIUM, Strain/Indicator: TA1535, Metabolic Activation: HAMSTER, LIVER, S-9, AROCLOR 1254 (10%), Method: STANDARD PLATE); “inactive; negative” (Test System: AMES SALMONELLA TYPHIMURIUM, Strain/Indicator: TA1535, Metabolic Activation: NONE, Method: STANDARD PLATE); “inactive; negative” (Test System: AMES SALMONELLA TYPHIMURIUM, Strain/Indicator: TA1535, Metabolic Activation: RAT, LIVER, S-9, AROCLOR 1254 (10%), Method: STANDARD PLATE); “inactive; negative” (Test System: AMES SALMONELLA TYPHIMURIUM, Strain/Indicator: TA1537, Metabolic Activation: HAMSTER, LIVER, S-9, AROCLOR 1254 (10%), Method: STANDARD PLATE); “inactive; negative” (Test System: AMES SALMONELLA TYPHIMURIUM, Strain/Indicator: TA1537, Metabolic Activation: NONE, Method: STANDARD PLATE); “inactive; negative” (Test System: AMES SALMONELLA TYPHIMURIUM, Strain/Indicator: TA1537, Metabolic Activation: RAT, LIVER, S-9, AROCLOR 1254 (10%), Method: STANDARD PLATE). For the same compound, the mutagenic call (Test System: AMES SALMONELLA TYPHIMURIUM, Strain/Indicator: TA1538, Metabolic Activation: HAMSTER, LIVER, S-9, AROCLOR 1254 (10%), Method: STANDARD PLATE) is “inactive; negative”; the mutagenic call under setting [4] is “inactive; negative”; the mutagenic call (Test System: AMES SALMONELLA TYPHIMURIUM, Strain/Indicator: TA1538, Metabolic Activation: RAT, LIVER, S-9, AROCLOR 1254 (10%), Method: STANDARD PLATE) was “inactive; negative”; the mutagenic call under setting [5] was “inactive; negative. reevaluation of results: inconclusive”; the mutagenic call under setting [6] was “inactive; negative. reevaluation of results: inconclusive”.
